The numbers were not newly measured in patent US20110305738A1, “Oxygenating Oral Compositions” (priority 2010, published 2011), which cites them from elsewhere.

Test in series [1]: not given
This is another data set of the same source.

For `NC(N)=O.OO` [Carbamide peroxide], the pH upon dissolution entry (1% solution) was “approximately 4.05”. In addition, the “pH when solubilized in water” value (saturated solution) is recorded as “approximately 3.40”. For the same compound, the water solubility in series [1] (at 20 °C) is 800 grams per liter. In addition, the “saturated solution concentration of carbamide peroxide” value in series [1] (water at 20° C.) was 44.4%.
